Measured values taken from patent publication US5281619A, “Therapy for diabetic complications” (Eli Lilly and Company, priority 1993, dated 1994).

Assays:
[1] = test system: bovine retinal capillary endothelial cells; assay: Activation of bovine retinal capillary endothelial cells by phorbol esters (PA activity, cell number); format: cell-based; settings: for increase in endothelial cell activation (in words): phorbol esters known to activate PKC vs. 4-α analogues
From the text: Retinal capillary endothelial cell cultures were initiated from bovine eyes using a modification of the procedure of Buzney et al., Investigative Ophthalmology and Visual Sciences, 24: 470-480 (1983). Bovine eyes were transported on ice from a local abattoir. Extraocular muscle was trimmed from the eye, and the eye bisected posterior to the ora serrata. The vitreous and anterior portion of the eye were discarded, and the neuro-retina was gently dissected from the posterior eyecup. The retinas from 20 cattle were pooled and homogenized (5 strokes of a Teflon/glass homogenizer) in Hank's saline. The homogenate was passed through a 350μ filter to remove large debris and a 210μ filter to remove large vessels. The microvessels were trapped on a 85μ filter. The microvessels were resuspended in Hank's saline and digested with 7.5 mg/ml bacterial collagenase (Boeringher Mannheim, Indianapolis) Hank's saline for 1 hour at 37° C. The cells were pelleted by centrifugation (100 xg, 10 min), resuspended in 5 ml Endothelial Growth Media (EGM, Clonetics) and seeded in a gelatin-coated T-25 flask. After 24 hours the cells were trypsinized and replated in a gelatin coated T225. At 7 days and again at 14 days the cultures were labeled with acetylated lipoproteins labeled with the fluorescent probe (1,1'-dioctadecyl-3,3,3,3,-tetramethyl-indocarbocyanine perchlorate). The endothelial cells were separated from contaminating cell types using a fluorescent cell sorter as described in Voyta et al., J. Cell Biology, 99: 2034-2040 (1984).
Retinal capillary endothelial cells were seeded into 96-well plates and grown to confluence (10^5 cells/well) in EGM containing 10% fetal bovine serum (FBS). The media was changed to Dubecco's Modified Eagle's Medium with 10% fetal bovine serum 24 hours prior to the assay. The cells were treated with 50 nM 4-β phorbol 12,13-dibutyrate (4-β PDBu) to activate PKC and produce the activated endothelial phenotype characteristic of the diabetic state. The activated cells were treated with a series of dilutions of the test compounds. The phorbol esters and the test compounds were dissolved in DMSO before adding to the culture media. The cultures were incubated at 37° C. for 48 hours. Following treatment, the cells were lysed with 25mM NH4 OH in 0.5% triton X-100.
(§1) The activation of bovine retinal capillary endothelial cells was monitored through alterations in cellular plasminogen activator (PA) activity in the cell lysates. Plasminogen activator activity was determined in a 50 μl aliquot of cell lysate using the synthetic substrate H-D-valyl-L-leucyl-lysine-p-nitroaniline dihydrochloride (Kabi).
Dose-response curves generated for 4-β PDBu and 4-β PMA indicated […] of 50 nM and 5 nM respectively. Elevated PA activity was observed only after prolonged (at least 8 hours) stimulation with phorbol esters. The PA activity continued to increase in a time and dose dependent manner for up to 72 hours, but constant stimulation with phorbol ester was required to maintain endothelial cell activation.

[2] = test system: vasculature in streptozotocin-diabetic rats; assay: Microvascular dysfunction associated with streptozotocin-induced diabetes in rats (permeability and blood flow); format: in vivo, rat; settings: 0.1% in diet, 4 to 7-week period
Protocol: Representative compounds were further evaluated for their ability to block the microvascular dysfunction associated with streptozotocin-induced diabetes. Rats were made diabetic with an injection of streptozotocin, and the rats were feed ad libitum with a diet containing 0.1% of a representative compound. Blood flow was measured through the use of radiolabeled microspheres while permeability was quantified using a dual label technique with iodinated albumin (^125 I/^131 I). Details of the model can be found in Tilton et al., Diabetes38: 1258-1270 (1989), and Williamson et al., J. Clin. Invest. 85: 1167-1172 (1990).
Blood flow also was elevated on induction of diabetes in these tissues. In contrast, vascular function was not affected in the brain or muscle.

[3] = test system: Glucose-Induced Vascular Dysfunction in Normal Rats; assay: Glucose-induced vascular dysfunction in rat granulation tissue chamber model (permeability and blood flow); format: in vivo; settings: twice daily for 7 days, 30-35 mM glucose
Protocol: Representative compounds were evaluated in situ for their ability to block the increase in blood flow and permeability induced by high glucose in a rat tissue granulation tissue chamber model. In this model circles of skin were removed from the backs of normal rats and stainless steel screw-cap chambers were mounted. New granulation tissue formed within the chambers. Addition of 30-35 mM glucose (0.5 ml) twice daily to the chambers for 7 days induced a vascular dysfunction similar to that of diabetes--that is there was an increase in blood vessel permeability and an increase in blood flow. Blood flow was measured through the use of radiolabeled microspheres, and permeability was quantified using a dual label technique with iodinated albumin (^125 I/^131 I). Details of the model can be found in Tilton, et al., Diabetes38: 1258-1270 (1989). and Williamson, et al., J. Clin. Invest. 85: 1167-1172 (1990).
Representative compounds were dissolved in DMSO and diluted in a balanced salt solution to achieve a final concentration of 20 or 50 μM. The granulation chamber tissue was treated twice daily for 7 days to determine their effects on glucose-induced vascular dysfunction. Addition of 30-35 mM glucose to the granulation chamber induced a vascular dysfunction characterized by increased vessel permeability and increased blood flow.

[4] = test system: bovine retinal capillary endothelial cells; assay: Inhibition of phorbol ester-induced endothelial cell activation, plasminogen activator (PA) activity in cell lysates; format: cell-based; settings: Bos taurus, 4-β PDBu (50 nM) activated cells, 48 hours
From the text: Retinal capillary endothelial cell cultures were initiated from bovine eyes using a modification of the procedure of Buzney et al., Investigative Ophthalmology and Visual Sciences, 24: 470-480 (1983). Bovine eyes were transported on ice from a local abattoir. Extraocular muscle was trimmed from the eye, and the eye bisected posterior to the ora serrata. The vitreous and anterior portion of the eye were discarded, and the neuro-retina was gently dissected from the posterior eyecup. The retinas from 20 cattle were pooled and homogenized (5 strokes of a Teflon/glass homogenizer) in Hank's saline. The homogenate was passed through a 350μ filter to remove large debris and a 210μ filter to remove large vessels. The microvessels were trapped on a 85μ filter. The microvessels were resuspended in Hank's saline and digested with 7.5 mg/ml bacterial collagenase (Boeringher Mannheim, Indianapolis) Hank's saline for 1 hour at 37° C. […]
as §1

CCCC(=O)OC1C(C)C2(O)C(C=C(CO)CC3(O)C(=O)C(C)=CC32)C2C(C)(C)C12OC(=O)CCC (stereo not drawn) [4-α PDBu]
increase in endothelial cell activation (in words) [1]: not

N#CC1=C(N)Oc2c(ccc3ccccc23)C1c1cccc([N+](=O)[O-])c1 (stereo not shown) [Example 6, 2 Amino-4-(3-nitrophenyl)-4H-naphtho[1,2-b]pyran-3-carbonitrile]
development of increased permeability and blood flow (in words) [2]: prevented the development of increased permeability and blood flow | Permeability, Aorta ([2]; aorta, diabetic rats): 99.00 µg/g/min | Blood Flow, Brain ([2]; brain, diabetic rats): 0.88 mL/min/g | Permeability, Brain ([2]; brain, diabetic rats): 19.00 µg/g/min | Permeability, Muscle ([2]; muscle, diabetic rats): 63.00 µg/g/min | Blood Flow, Nerve ([2]; nerve, diabetic rats): 0.05 mL/min/g | Permeability, Nerve ([2]; nerve, diabetic rats): 63.00 µg/g/min | Blood Flow, Retina ([2]; retina, diabetic rats): 0.40 mL/min/g | Permeability, Retina ([2]; retina, diabetic rats): 59.00 µg/g/min | BSA Clearance ([3]; 20 μM): 179 µg/g/min | Blood Flow ([3]; 20 μM): 0.184 mL/g/min | BSA Clearance ([3]; 50 μM): 158 µg/g/min | Blood Flow ([3]; 50 μM): 0.168 mL/g/min | IC50 [4]: 25 nM

N#CC1=C(N)Oc2c(ccc3ccccc23)C1c1ccccc1[N+](=O)[O-] (stereo not shown) [Example 5, 2-Amino-4-(2-nitrophenyl)-4H-naphtho[1,2-b]pyran-3-carbonitrile]
BSA Clearance ([3]; 20 μM): 163 µg/g/min | Blood Flow ([3]; 20 μM): 0.231 mL/g/min | IC50 [4]: 500 nM

CCCC(=O)OC1C(C)C2(O)C(C=C(CO)CC3(O)C(=O)C(C)=CC32)C2C(C)(C)C12OC(=O)CCC (stereo not drawn) [4-β PDBu, 4-β phorbol 12,13-dibutyrate]
increase in PA activity associated with the cell layer ([1]; confluent cells, 48 hours): 12 fold | increase in PA released into the media ([1]; confluent cells, 48 hours): 12 fold | increase in cell number ([1]; confluent cells, 48 hours): two fold increase in cell number | increase in endothelial cell activation (in words) [1]: increase in activation occurred

CCCCCCCCCCCCCC(=O)OC1C(C)C2(O)C(C=C(CO)CC3(O)C(=O)C(C)=CC32)C2C(C)(C)C12OC(C)=O (stereo not drawn) [4-β PMA]
IC50 ([1]; Bos taurus, Endothelial cell, dose-response curves for phorbol esters): 5 nM | increase in endothelial cell activation (in words) [1]: increase in activation occurred

CCCCCCCCCCCCCC(=O)OC1C(C)C2(O)C(C=C(CO)CC3(O)C(=O)C(C)=CC32)C2C(C)(C)C12OC(C)=O (stereo not drawn) [4-α PMA]
increase in endothelial cell activation (in words) [1]: not
